The record followed here is patent US20070258941A1, “Methods and compositions for remediation of disc herniation by modifying structure” (priority 2006, published 2007).

Series [1] deals with rabbit lumbar intervertebral discs. The series is described as follows: Effect of polylysine on disc height (disc height index, DHI) after injection into rabbit lumbar discs. It is filed as in vivo. Conditions: for L2/3 DHI, Average / L2/3 DHI: injected disc L2/3; for L2/3 DHI, Average / L4/5 DHI, Average: average of six animals; for L2/3 DHI, Average / L2/3 DHI / L4/5 DHI, Average / L4/5 DHI: untreated L3/4 disc = 100; for L2/3 DHI / L4/5 DHI: individual animals 1-6; for L4/5 DHI, Average / L4/5 DHI: injected disc L4/5. Here is the method: FIG. 1 is a set of bar graphs showing intervertebral disc heights in rabbits injected with 30-70 kDa polylysine at each of lumbar 2/3 and 4/5, compared with heights of control untreated lumbar discs 3/4 (100%). Disc heights were measured at each of two weeks (FIG. 1, Panel A), four weeks (FIG. 1, Panel B), and six weeks (FIG. 1, Panel C). A decrease in the DHI of approximately 20% was maintained for 6 weeks in this study.
Statistical Analyses: Statistical analyses were performed by one way ANOVA with Fisher's PLSD test as a post hoc test.
Rabbit discs (six animals) were injected with 30-70 kDa polylysine into discs L4/5 and L2/3. As controls, the L3/4 discs were untreated in each of the animals.
Disc height was measured at each of 2, 4 and 6 weeks after injection, and the normalized percentages of starting disc heights observed are shown in FIG. 1. Disc height was reduced by the treatment to about 80% of the initial values, and the decrease of 20% was maintained for the full 6-week observation period.

Series [2] has as its system bovine cartilage explants. The series is described as follows: Distribution kinetics / permeation of FITC-labeled polylysine into cartilage explants (fluorescence of cryostat sections). In kind it is in vitro ADME. Conditions: for time for permeation to achieve maximal levels (completed): FITC-labeled polymer, cartilage explants submerged in solution. Here is the method: FIG. 2 is a set of photographs of bovine cartilage explants that were incubated with FITC-labeled polylysine (15-30 kDa in size, panels F, G, H, I, and J; and 30-70 kDa in size, panels K, L, M, N, and O) or control untreated cartilage (FIG. 2 panels A, B, C, D, and E). Photographs were taken at each of time points 0.5 hour (FIG. 2, panels A, F, and K), 1.0 hour (FIG. 2, panels B, G, and L), 3 hours (FIG. 2, panels C, H, and M), 7 hours (FIG. 2, panels D, I, and N) and 12 hours (FIG. 2, panels E, J, and O).
After a predetermined time, tissue was washed, frozen, and 10 micron sections were produced using a cryostat.

Several values for one entry are separate records, joined by “and”; a condition that tells them apart may be missing. Equal values may be shown once.

With polylysine [30-70 kDa polylysine], in series [1] (2 weeks after injection), the “L2/3 DHI, Average” value is given as 79.48%; the “L2/3 DHI” value was 77.13% and 68.43% and 70.29% and 91.98% and 80.01% and 89.04%; the “L4/5 DHI, Average” value amounted to 78.67%; the “L4/5 DHI” value is 90.03% and 77.07% and 77.69% and 72.34% and 81.34% and 73.56%. Further, in series [1] (4 weeks after injection), the “L2/3 DHI, Average” value amounted to 74.86%; the “L2/3 DHI” value is 79.11% and 93.42% and 80.98% and 66.08% and 63.83% and 65.74%; the “L4/5 DHI, Average” value is 79.65%; the “L4/5 DHI” value is 79.68% and 93.65% and 66.64% and 79.43% and 73.86% and 84.63%. Moreover, in series [1] (6 weeks after injection), the “L2/3 DHI, Average” value was found to be 79.51%; the “L2/3 DHI” value is 78.77% and 93.30% and 96.63% and 65.59% and 73.66% and 69.09%; the “L4/5 DHI, Average” value is 81.57%; the “L4/5 DHI” value was 87.13% and 96.43% and 81.53% and 83.27% and 61.60% and 79.46%. For the same substance, the “disc height after treatment, of the initial values” in series [1] (rabbit discs L2/3 and L4/5, 2, 4 and 6 weeks after injection) is “about 80%”.
As for polylysine [longer polymer], the “time for permeation to achieve maximal levels (completed)” value in series [2] fell in the range of 7 to 12 h.
For the substance polylysine [shorter cationic polymer], the “time for permeation to achieve maximal levels (completed)” value in series [2] lay in the range of 3 to 7 h. Also, the “rapidity of permeation of cartilage” value in series [2] (compared to the longer chain length (30-70 kDa)) is on record as “enhanced”.
